In PubChem BioAssay (NCI):
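In this assay, cells in 96-well plates receive the compound at five concentrations for 48 hours. Endpoints are linearly interpolated between the surrounding concentrations. GI50 = concentration required for 50% inhibition of growth. TGI marks complete inhibition of growth.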

Experiments:
Assay in all cases: NCI anticancer screen, dose series, 48 h
DU-145 prostate = tested on: DU-145 prostate
OVCAR-4 ovarian = tested on: OVCAR-4 ovarian
PC-3 prostate = tested on: PC-3 prostate
HOP-92 NSCLC = tested on: HOP-92 NSCLC
K-562 leukemia = tested on: K-562 leukemia
OVCAR-3 ovarian = tested on: OVCAR-3 ovarian
SR leukemia = tested on: SR leukemia
OVCAR-5 ovarian = tested on: OVCAR-5 ovarian
SF-539 CNS = tested on: SF-539 CNS
SNB-78 CNS = tested on: SNB-78 CNS
M19-MEL melanoma = tested on: M19-MEL melanoma

## COc1ccc(-c2nc(-c3cnccn3)n(C3OC(CO)C(O)C(O)C3O)n2)cc1 (stereo not drawn)
DU-145 prostate
  TGI: > 100 µM
OVCAR-4 ovarian
  TGI: > 100 µM
PC-3 prostate
  TGI: > 100 µM
HOP-92 NSCLC
  TGI: > 100 µM
K-562 leukemia
  TGI: > 100 µM
OVCAR-3 ovarian
  TGI: > 100 µM
SR leukemia
  TGI: > 100 µM
OVCAR-5 ovarian
  TGI: > 100 µM
SF-539 CNS
  TGI: > 100 µM

## CC(=O)NC1=C(NCC(C)C)C(=O)c2ccccc2C1=O
OVCAR-4 ovarian
  TGI: > 100 µM
SNB-78 CNS
  TGI: 89.1 µM
M19-MEL melanoma
  TGI: 34.2 µM
HOP-92 NSCLC
  TGI: 28.3 µM
K-562 leukemia
  TGI: 36.7 µM
OVCAR-3 ovarian
  TGI: 32.4 µM
OVCAR-5 ovarian
  TGI: > 100 µM
SF-539 CNS
  TGI: 32.2 µM

## CCCNC(=O)CCC(C)[C@H]1CCC2C3C(C[C@H](OC(C)=O)[C@@]21C)[C@@]1(C)CCC2(C[C@H]1C[C@H]3OC(C)=O)OOC1(CCCCC1)OO2 (stereo partly drawn)
DU-145 prostate
  TGI: 3.36 µM
OVCAR-4 ovarian
  TGI: 26.6 µM
PC-3 prostate
  TGI: 7.08 µM
HOP-92 NSCLC
  GI50: 1.42 µM
  TGI: 3.82 µM
K-562 leukemia
  TGI: > 60.8 µM
OVCAR-3 ovarian
  TGI: 5.3 µM
SR leukemia
  TGI: 4.7 µM
OVCAR-5 ovarian
  TGI: 25.8 µM
SF-539 CNS
  TGI: 16 µM

## NC(=O)C1=CC2C3C=CC2(O)C(=O)OC3O1 (stereo not drawn)
DU-145 prostate
  TGI: 14.2 µM
OVCAR-4 ovarian
  TGI: 13.2 µM
PC-3 prostate
  TGI: 37.7 µM
HOP-92 NSCLC
  TGI: 6.73 µM
K-562 leukemia
  TGI: > 100 µM
OVCAR-3 ovarian
  TGI: 24.7 µM
SR leukemia
  TGI: 5.48 µM
OVCAR-5 ovarian
  TGI: > 64.5 µM
SF-539 CNS
  TGI: 15.7 µM

## O=C(CSc1nc2ccc(I)cc2c(=O)n1Cc1ccccc1)NN1C(=O)CCC1=O
DU-145 prostate
  TGI: > 100 µM
OVCAR-4 ovarian
  TGI: 75.9 µM
PC-3 prostate
  TGI: > 100 µM
HOP-92 NSCLC
  TGI: 64.7 µM
K-562 leukemia
  TGI: > 100 µM
OVCAR-3 ovarian
  TGI: 70.6 µM
SR leukemia
  TGI: > 100 µM
OVCAR-5 ovarian
  TGI: > 100 µM
SF-539 CNS
  TGI: > 100 µM

## COc1cc(-n2cc(-c3cc(O)c(C/C=C(\C)CCC=C(C)C)c(O)c3)nn2)cc2c1O[C@]1(C)CC[C@@H](O)C(C)(C)[C@H]1C2
DU-145 prostate
  GI50: 2.3 µM
  TGI: 26.3 µM
OVCAR-4 ovarian
  GI50: 3.13 µM
  TGI: 41.6 µM
PC-3 prostate
  GI50: 0.598 µM
  TGI: > 84.3 µM
HOP-92 NSCLC
  GI50: 1.03 µM
  TGI: 17.3 µM
OVCAR-3 ovarian
  GI50: 2.58 µM
  TGI: 14.3 µM
SR leukemia
  GI50: 0.0317 µM
  TGI: > 100 µM
OVCAR-5 ovarian
  GI50: 2.35 µM
  TGI: 21.5 µM
SF-539 CNS
  GI50: 0.0664 µM
  TGI: 1.76 µM

## COC(=O)c1c(OC)cc2cc3c(c(O)c2c1C)C(=O)C1(O)C(=O)C=C(OC)C(OC(=O)CC(C)N)=C1C3=O (stereo not drawn)
DU-145 prostate
  TGI: > 100 µM
OVCAR-4 ovarian
  TGI: 90.1 µM
PC-3 prostate
  TGI: > 100 µM
HOP-92 NSCLC
  TGI: > 100 µM
OVCAR-3 ovarian
  TGI: > 100 µM
SR leukemia
  TGI: 47.6 µM
OVCAR-5 ovarian
  TGI: > 100 µM
SF-539 CNS
  TGI: > 100 µM

## O=c1oc2ccc(Cl)cc2cc1-c1cn2ccsc2n1
DU-145 prostate
  TGI: > 100 µM
OVCAR-4 ovarian
  TGI: > 100 µM
PC-3 prostate
  TGI: > 100 µM
HOP-92 NSCLC
  TGI: 64.3 µM
K-562 leukemia
  TGI: > 100 µM
OVCAR-3 ovarian
  TGI: > 100 µM
SR leukemia
  TGI: > 100 µM
SF-539 CNS
  TGI: > 100 µM

## COc1ccc(/C=C2\CCC(CNc3ccc(Br)cc3)C2=O)cc1 (stereo not drawn)
DU-145 prostate
  TGI: > 100 µM
OVCAR-4 ovarian
  TGI: > 100 µM
PC-3 prostate
  TGI: > 100 µM
HOP-92 NSCLC
  TGI: > 100 µM
K-562 leukemia
  TGI: > 100 µM
OVCAR-3 ovarian
  TGI: > 100 µM
SR leukemia
  TGI: 87.2 µM
OVCAR-5 ovarian
  TGI: > 100 µM

## Nc1ncc(/C=N/O)c(NCC2(CO)CC(CCc3ccccc3)C2)n1 (stereo not drawn)
DU-145 prostate
  TGI: 28.8 µM
OVCAR-4 ovarian
  TGI: 48.5 µM
PC-3 prostate
  TGI: 26.8 µM
HOP-92 NSCLC
  TGI: 30.2 µM
K-562 leukemia
  TGI: 31.7 µM
OVCAR-3 ovarian
  TGI: 30.7 µM
SR leukemia
  TGI: > 100 µM
OVCAR-5 ovarian
  TGI: 44.1 µM
SF-539 CNS
  TGI: 29.6 µM

## Cc1c2cccc-2ccc2c1[nH]c1ccccc12
DU-145 prostate
  TGI: 15.7 µM
OVCAR-4 ovarian
  TGI: 5.09 µM
PC-3 prostate
  TGI: 3.45 µM
HOP-92 NSCLC
  TGI: 7.75 µM
K-562 leukemia
  TGI: 11 µM
OVCAR-3 ovarian
  TGI: 6.03 µM
SR leukemia
  TGI: 18.9 µM
OVCAR-5 ovarian
  TGI: 4.77 µM
SF-539 CNS
  TGI: 3.42 µM

## O=C1OI(C#Cc2ccccc2)c2ccccc21
DU-145 prostate
  TGI: 23.4 µM
OVCAR-4 ovarian
  TGI: 12.3 µM
PC-3 prostate
  TGI: 18.3 µM
HOP-92 NSCLC
  TGI: 5.66 µM
K-562 leukemia
  TGI: 6.7 µM
OVCAR-3 ovarian
  TGI: 10.6 µM
SR leukemia
  TGI: 5.53 µM
OVCAR-5 ovarian
  TGI: > 40.1 µM
SF-539 CNS
  TGI: 5.58 µM

## CC1=C2NCN(C)N=C2C(C#N)(C#N)C1(C#N)C#N
DU-145 prostate
  TGI: > 75 µM
OVCAR-4 ovarian
  TGI: 34.8 µM
PC-3 prostate
  TGI: 72.8 µM
HOP-92 NSCLC
  TGI: 32 µM
K-562 leukemia
  TGI: > 100 µM
OVCAR-3 ovarian
  TGI: 66.8 µM
SR leukemia
  TGI: 35.8 µM
OVCAR-5 ovarian
  TGI: > 91.7 µM
SF-539 CNS
  TGI: 64.4 µM

## O=P(O)(O)CN1CCNCCN(CP(=O)(O)O)CCNCC1
DU-145 prostate
  TGI: > 100 µM
OVCAR-4 ovarian
  TGI: > 100 µM
PC-3 prostate
  TGI: > 100 µM
HOP-92 NSCLC
  TGI: 9.76 µM
K-562 leukemia
  TGI: > 100 µM
OVCAR-3 ovarian
  TGI: > 100 µM
SR leukemia
  TGI: 4.16 µM
OVCAR-5 ovarian
  TGI: > 100 µM
SF-539 CNS
  TGI: > 100 µM

## CC1(C)CCC2(C(=O)OC3OC(CO)C(O)C(O)C3O)CCC3(CO)C(=CCC4C5(C)CC(O)C(O)C(C)(C(=O)OC6OC(CO)C(O)C(O)C6O)C5CCC43C)C2C1 (stereo not drawn)
DU-145 prostate
  TGI: > 100 µM
OVCAR-4 ovarian
  TGI: > 100 µM
PC-3 prostate
  TGI: > 100 µM
HOP-92 NSCLC
  TGI: > 100 µM
K-562 leukemia
  TGI: > 100 µM
OVCAR-3 ovarian
  TGI: > 100 µM
SR leukemia
  TGI: > 100 µM
OVCAR-5 ovarian
  TGI: > 100 µM
SF-539 CNS
  TGI: > 100 µM

## O=[N+]([O-])/C=C/c1cn(CCCCCn2cc(/C=C/[N+](=O)[O-])c3ccccc32)c2ccccc12
DU-145 prostate
  TGI: 7.25 µM
OVCAR-4 ovarian
  TGI: 7.1 µM
PC-3 prostate
  TGI: 15 µM
HOP-92 NSCLC
  TGI: 67 µM
K-562 leukemia
  TGI: 3.7 µM
OVCAR-3 ovarian
  TGI: 4.66 µM
SR leukemia
  TGI: > 100 µM
OVCAR-5 ovarian
  TGI: 32.3 µM
SF-539 CNS
  TGI: 5.28 µM

## COC(=O)CC(NC(=O)OCc1ccccc1)C(C(=O)OCc1ccccc1)C1(C)OCCO1 (stereo not drawn)
OVCAR-4 ovarian
  TGI: > 100 µM
M19-MEL melanoma
  TGI: > 100 µM
K-562 leukemia
  TGI: > 100 µM
OVCAR-3 ovarian
  TGI: > 100 µM
SR leukemia
  TGI: 58.2 µM
SF-539 CNS
  TGI: > 100 µM

## CCN(CC)CCN(C)CCc1ccc(Br)cc1
DU-145 prostate
  TGI: > 100 µM
OVCAR-4 ovarian
  TGI: > 100 µM
PC-3 prostate
  TGI: > 100 µM
HOP-92 NSCLC
  TGI: > 100 µM
K-562 leukemia
  TGI: > 100 µM
OVCAR-3 ovarian
  TGI: > 100 µM
SR leukemia
  TGI: > 100 µM
OVCAR-5 ovarian
  TGI: > 100 µM
SF-539 CNS
  TGI: > 100 µM

## COC(=O)c1ccc(/C=C2\CCc3ccccc3C2=O)cc1
DU-145 prostate
  TGI: > 100 µM
OVCAR-4 ovarian
  TGI: > 100 µM
PC-3 prostate
  TGI: > 100 µM
HOP-92 NSCLC
  TGI: > 100 µM
K-562 leukemia
  TGI: > 100 µM
OVCAR-3 ovarian
  TGI: > 100 µM
SR leukemia
  TGI: > 100 µM
OVCAR-5 ovarian
  TGI: > 100 µM
SF-539 CNS
  TGI: > 100 µM

## O=C(c1ccco1)C1CC(c2ccc3ccccc3c2O)=NN1c1ccc([N+](=O)[O-])cc1[N+](=O)[O-] (stereo not drawn)
DU-145 prostate
  TGI: > 100 µM
OVCAR-4 ovarian
  TGI: > 100 µM
PC-3 prostate
  TGI: > 100 µM
HOP-92 NSCLC
  TGI: 76.1 µM
OVCAR-3 ovarian
  TGI: > 100 µM
SR leukemia
  TGI: 23.1 µM
OVCAR-5 ovarian
  TGI: > 100 µM
SF-539 CNS
  TGI: > 100 µM

## CCOC(=O)/C(C#N)=C/N(CC)/N=C/c1ccccc1
DU-145 prostate
  TGI: > 100 µM
OVCAR-4 ovarian
  TGI: > 100 µM
PC-3 prostate
  TGI: > 100 µM
HOP-92 NSCLC
  TGI: > 100 µM
K-562 leukemia
  TGI: > 100 µM
OVCAR-3 ovarian
  TGI: > 100 µM
SR leukemia
  TGI: > 100 µM
OVCAR-5 ovarian
  TGI: > 100 µM
SF-539 CNS
  TGI: > 100 µM

## O=C(/C=C/c1ccco1)c1cccc(C(=O)/C=C/c2ccco2)n1
DU-145 prostate
  TGI: > 100 µM
OVCAR-4 ovarian
  TGI: > 100 µM
PC-3 prostate
  TGI: > 100 µM
HOP-92 NSCLC
  TGI: > 81.9 µM
K-562 leukemia
  TGI: > 100 µM
OVCAR-3 ovarian
  TGI: > 100 µM
SR leukemia
  TGI: 6.82 µM
OVCAR-5 ovarian
  TGI: > 81.9 µM
SF-539 CNS
  TGI: 17.5 µM
